Measured values from patent publication US20220362182A1, “METHODS FOR REVERSING HEPATIC STEATOSIS” (BRIGHTSEED, INC., priority 2020, published 2022).
“Also recorded” adds a separate entry of the source. Like-named read-outs stand apart in the source and are kept apart here.

Columns and labels:
T6PNE cells = assay: fat clearance assay in palmitate-treated T6PNE cells (Oil Red O, Nile Red, triglyceride); assay type: cell-based, human; conditions: 0.25 mM palmitate for 2 days; for cellular triglyceride (TG) level: 10 μM
Experimental: Oil red O and Nile Red staining were used to measure lipid accumulation. Oil Red O staining was done as known in the art. Briefly, fixed cells were incubated with Oil Red O solution (Poly Scientific) for 3 h, followed by photomicrography (Olympus, IX71). For Nile Red staining, dye (1: 500 in PBS from 1 mg/ml in ethanol stock, Sigma) was added for 30 mins and DAPI added for 10 mins at room temperature. Quantification of Nile Red staining was done with a Celigo imaging cytometer (Nexcelom Bioscience). More than 4000 cells were analyzed for each quantification. The number of Nile Redpositive cells was normalized to the DAPI-positive cell number for each well and fold change was calculated relative to a DMSO control well.
Palmitate (150 mM) (Sigma-Aldrich) was prepared in 50% ethanol and precomplexed with 15% fatty acid-free BSA (Research Organics, Cleveland, Ohio, USA) in a 37 C water shaker. BSA-precomplexed palmitate was used as a 12 mM stock solution for all assays with a final concentration of 0.25 mM palmitate in cell culture medium.
siRNAs were purchased from Ambion. For transfections, 24 μL of each siRNA (1 μM stock) was mixed with 90 μL of a 1:100 dilution of Lipofectamine RNAi MAX (Invitrogen, Waltham, Mass., USA) in Opti-MEM. Transfection was done in 24 well plates (Thermo Fisher Scientific, Waltham, Mass., USA), by incubation with cells for 30 min. at room temperature. One day after transfection, cells were transferred to 96 well plates (2000 cells per well) and incubated at 37° C. for an additional day. Forty-eight hours after transfection, either palmitate-BSA complex or BSA control plus or minus compounds was added for 2 days. For validation of siRNAs, transfected cells were harvested for RNA purification and QPCR for each gene 2 days after transfection.
The bicinchoninic acid (BCA) protein assay kit assay (Thermo scientific) was used to measure protein amount for DART, Western blotting and TG assays. Absorbance at 550 nm was determined using a plate reader.

SPNS2 mRNA [1] = assay: SPNS2 qPCR in T6PNE cells; assay type: cell-based, human
Experimental: (§1) Quantitative PCR (Q-PCR) from in vitro cell culture experiments used total RNA purified using RNeasy Kits (Qiagen). For liver tissue samples, total RNA was isolated using Trizol (Invitrogen) and prepared for RNAseq (mouse liver DMSO and NCT, N=3). cDNA was amplified using 3 μg of total RNA using qScript cDNA SuperMix (Quanta BioSciences, Beverly, Mass., USA). QPCR analysis was performed using SYBR® Select Master Mix (Applied Biosystems) and ABI 7900HT (Applied Biosystems, Thermo Fisher Scientific). The Ct values of mRNA expression were then normalized to the 18 s rRNA values and are expressed as fold change over samples from mice fed normal chow for in vivo experiments or DMSO controls for cell culture experiments.

hepatic steatosis = assay: oral administration in mice (hepatic steatosis); assay type: in vivo, mouse; conditions: subsequent studies
HNF4a mRNA = HNF4a mRNA in primary human hepatocytes; assay type: cell-based; conditions: high fat media, 5, 15, 40 µM, Day 4 to Day 10
Experimental: Experiments with primary human hepatocytes were performed by CN-Bio (Cambridge, UK). Primary human hepatocytes (PHHs), human Kupffer cells (HKs) and human stellate cells (HSCs) were seeded onto CN-Bio's PhysioMimix LC12 MPS culture plates at 6×10^5 cells for PHHs and 6×10^4 cells for HKs and HSCs in 1.6 ml of CN-Bio's HEP-lean media with 5% FCS. Throughout the experiment the cells were maintained at a flow rate of 1 μl/s. After 24 h (Day 1) of seeding, the media was changed to HEP-lean media and the cells were incubated until day 4 to allow the cells to form microtissues. At day 4 post seeding, media was changed to HEP-fat media and treated with DMSO or NCT (5, 15, 40 μM). Media was replaced on days 6 and 8. Cells were harvested on day 10 for RNA extraction. Data are presented as mean ±SEM of three or more samples as indicated. Statistical significance was assessed using Student's t-test, ANOVA or R^2 coefficient of correlation.

LC3B = assay: anti-LC3B Western blot in T6PNE cells; assay type: cell-based, human; conditions: 10 μM
Experimental: Whole-cell extracts were prepared by incubation in RIPA buffer (Invitrogen) containing protease inhibitors (Calbiochem, San Diego, Calif.). Protein ([…]) was separated on 12% or 16% Tri-Glycine gels (Invitrogen) and transferred to Immobilon P membrane (0.2 μm pore, Millipore). After 1 h in phosphate-buffered saline-Tween (PBST) with 3% milk, membrane was incubated with antibodies to HNF4α (mouse, Novus, 1:1000), LC3B (rabbit, Novus, 1:500), p62 (SQSTM1, mouse, Santa Cruz, 1:1000) or β-actin (mouse, Santa Cruz, 1:2000), followed by secondary antibody conjugated to horseradish peroxidase (1:5000, Jackson Immune).

SPNS2 mRNA [2] = assay: SPNS2 qPCR in mouse pancreas; assay type: in vivo
Experimental: as §1

SMILES | fat clearance (stored fat by Oil Red O and Nile Red staining) (T6PNE cells) | cellular triglyceride (TG) level (T6PNE cells) | SPNS2 expression (mRNA) (SPNS2 mRNA [1]) | SPNS2 expression (mRNA) (SPNS2 mRNA [1]; listed as N-trans-caffeoyltyramine) | hepatic steatosis after oral administration (hepatic steatosis) | HNF4a mRNA (HNF4a mRNA) | LC3B-II to LC3B-I ratio (LC3B) | SPNS2 expression in mouse pancreas (SPNS2 mRNA [2])
COc1cc(/C=C/C(=O)NCCc2ccc(O)cc2)ccc1O [NFT, N-trans feruloyltyramine] | less stored fat than control cells; also recorded: induced fat clearance from palmitate-loaded cells | produced the same result as the Nile Red staining | – | – | – | – | – | –
O=C(/C=C/c1ccc(O)c(O)c1)NCCc1ccc(O)cc1 [NCT, N-trans-caffeoyltyramine] | less stored fat than control cells; also recorded: induced fat clearance from palmitate-loaded cells | produced the same result as the Nile Red staining | induced SPNS2 expression | induced the expression | effective in reducing hepatic steatosis in mice | significantly induced | induced increases | induced SPNS2 expression
